Data reported in patent publication US20050171342A1, “Conjugates of biologically active compounds, methods for their preparation and use, formulation and pharmaceutical applications thereof” (priority 2002, published 2005).
pIC50: −log10 of the molar value. Where two headings read alike, the source gives them in different places.

Key:
lymphocytes = experiment: Proliferation assay (BrdU incorporation, phytohemagglutanin-stimulated lymphocytes); format: cell-based, mammalian; conditions: for IC50: Lymphocyte; for Ratio (2 h:72 h): ratio of IC50 at 2 h to IC50 at 72 h, lower = better uptake and drug release
Text: Assay to determine the in vitro rate of, for example, lymphocyte proliferation. Lymphocytes are purified out of ant coagulated (CPDA, citrate or heparin) mammalian blood using the Lymphoprep™ system (supplier). Purified cells are counted using a hemocytometer following Trypan Blue staining, and a cell concentration of 1×10^6 cells/ml established in RPMi 1640 medium with 10% FCS and antibiotics as required (all from Biochrome). Following the addition of a cell proliferation stimulant, for example phytohemagglutanin (Sigma) at, for example an end concentration of 5 μg/ml, the cells are incubated with different concentrations of the to be investigated compound in 100 μl end volume in a 96-well microtiter plate in an incubator (37° C., 5% CO2, 95% humidity) for 72 h. Cell proliferation is quantified following BrdU incorporation for 16 h by ELISA and subsequent colorimetric development (Cell Proliferation ELISA BrdU (colorimetric) kit from Roche Diagnostics). The IC50 (μM) values are then calculated, and used to compare compound efficacy. To determine the influence of the T-L-C modification on in vitro cellular drug uptake and pharmacology, the above assay is additionally modified and an additional “wash” step included. In addition to running the assay for 72 h with the compounds to be tested, the assay is also run for just 2 h, then compound is washed away in three serial washing steps using 200 μl of medium at each step, and the cells subsequently incubated for a further 70 h. […] The lower the number, the better the uptake and drug release from the T-L-C in the cells (see results in Table 4 for examples), and improvement over mycophenolic acid.

E. coli (DH5α) = experiment: Testing of antibiotic activity (TC50, antibiotic dilution assay, turbidity); format: cell-based; conditions: concentration that inhibits 50% of the growth
Protocol: The TC50 or MIC procedure for antibiotic sensitivity testing involves an antibiotic dilution assay, which can be performed in microtitre plates. A series of twofold dilutions of each antibiotic are made in the wells, and then all wells are inoculated with a standard amount of the same test organism. After incubation, growth in the presence of the various antibiotics is observed by measuring turbidity.
Bacteria: B. pumilus and E. coli (DH5α)
Bacterial cultures are initiated from the plates for 2 to 3 weeks. After this time period bacteria are streaked out on new plates from the backups strored at −80° C. Due to the lack of resistance of the bacteria, new cultures are not to be initiated from an old plate or any liquid cultures derived from old plates. • Growth medium (GM)(per liter): 10 g Bacto-tryptone, 5 g Bacto-yeast extract, 6 g HEPES (25 mM), 5.4 g NaCl, pH 7.3 • Compound stocks 10 or 100 mM in DMSO stored at −20° C. Procedure • 1. Grow B. pumilus from an LB agar plate in a flask (max. 10% volume) up to about 50 ml in growth medium (GM) • 2. Dilute overnight suspension 1:10 in GM • 3. Determine OD600 of diluted bacterial suspension • 4. Dilute bacterial suspension in GM to an OD600 of 0.03-0.04. (6 ml/plate) • 5. Add 200 μl GM to the outer wells (Row A, Row H, Column 1, Column 12) • 6. Add 100 μl GM to each well starting from C2, row 3. • 7. Controls: Wells B2-B4 growth control. Wells B6-B8 blank. Row C growth inhibition control. • 7.1. To wells B2-B4 add: […], 4 μl DMSO, and 100 μl bacterial suspension adjusted to an OD600 of 0.03-0.04. • 7.2. To wells B6-B8 add: 196 μl GM and 4 μl DMSO • 7.3. Dilute a 10 mM COMPOUND 43 (positive control) stock to 800 μM (120 μl/plate) in GM. Add 100 μl of 800 μM COMPOUND 43 solution to well C2. • 8. Samples • 8.1. Dilute the 10 or 100 mM stock solutions to 800 μM (250 μl/plate) in GM. • 8.2. Add 100 μl of 800 μM sample in duplicates to wells D2/E2 resp. F2/G2. • 8.3. 2-fold serial dilution of all samples and Azithromycin • 8.3.1. […]
11. Determine OD600 on plate reader.

[1] = tested on: white blood cells (immune cells: neutrophils, monocytes, lymphocytes) versus erythrocytes; experiment: Immune cell partition / concentrative uptake into white blood cells (immune selectivity ratio); format: in vitro ADME, mammalian
Protocol: Freshly drawn heparinised blood or buffy coat preparations are used for the determination of immune cell partition ratios. Buffy coat preparations are preferred. These may be obtained from donor blood by simple centrifugation of whole blood (4795 g for 10 minutes). Following centrifugation, plasma is collected from the surface, after which immune cells are expressed from the donor bags along with the erythrocytes lying immediately below the leukocyte layer. This ensures high yields and a sufficient population of erythrocytes for partition. 5 ml of the resulting cell suspension are dispensed into T25 culture flasks. Substrates are added to a final concentration between 1 and 10 μM and the suspensions incubated at 37° C., in a 5% CO2 atmosphere. For analysis of uptake kinetics, samples are withdrawn at 0, 2, 5, 10, 30, 60, 90, 180, or 240 min after substrate addition. For screening purposes, samples are taken at 0 and 120 minutes.
Cell fractions were prepared using density gradient centrifugation. […]
Uptake of fluorescent compounds is monitored using fluorescence microscopy. Excitation and emission wavelengths depend of the fluorescence label in use. […]

HeLa or JURKAT = experiment: Cytotoxicity assay (Alamar Blue) with guanosine rescue, cell-based IMPDH assay
Protocol: HeLa cells (DSMZ, ACC 57) and Jurkat cells (DSMZ, ACC 282) in exponential growth phase are exposed for 3 days to test compounds. The number of surviving cells is then determined by the Alamar Blue assay (Serotec Inc.). This assay incorporates a fluorometric growth indicator based on detection of metabolic activity. Specifically, the system incorporates an oxidation-reduction indicator that fluoresces in response to chemical reduction of the growth medium resulting from cell growth. As cells grow in culture, innate metabolic activity results in a chemical reduction of the immediate surrounding environment. Continued growth maintains a reduced environment while inhibition of growth maintains an oxidized environment. […] Fluorescence is monitored at 560 nm (Exc.) and 590 nm Em.
HeLa cells (1×10^3) or JURKAT cells (1×10^3) are plated in 100 μl MEM medium (with Earle's salt; Biochrom KG) containing 10% FBS, 2 mM L-glutamine, and non-essential animo acids in 96-well plates and incubated at 37° C. and 5% CO2 atmosphere. […] The fluorescence is then measured as described above and the LD50 is determined based on a sigmoidal dose response regression. […] Any toxicity still detected can then be ascribed either to other biological effects of the of T-L-C conjugate of mycophenolic acid, or is due to the very high intracellular concentration of mycophenolic acid, following concentrative uptake into the cell.

[2] = read-out: IC50 (μM) at 2 h, 2 h incubation, compound washed away, further 70 h incubation
[3] = 72 h incubation with compound, read-out: IC50 (μM) at 72 h

| Structure (SMILES) | IC50 (lymphocytes; [2]) [µM] | IC50 (lymphocytes; [3]) [µM] | Ratio (2 h:72 h) (lymphocytes) | further results |
| --- | --- | --- | --- | --- |
| COc1c(C)c2c(c(O)c1C/C=C(\C)CCC(=O)OCCN1CCOCC1)C(=O)OC2 [Mycophenolate mofetil, reference compound] | 1.5 | 0.33 | 4.5 | – |
| CC[C@H]1OC(=O)[C@H](C)[C@@H](O[C@H]2C[C@@](C)(OC)[C@@H](O)[C@H](C)O2)[C@H](C)[C@@H](O[C@@H]2O[C@H](C)C[C@H](N(C)C)[C@H]2O)[C@](C)(O)C[C@@H](C)CN(C)[C@H](C)[C@@H](O)[C@]1(C)O [Compound 43, 9a-aza-9a-methyl-9-deoxo-9a-homoerythromycin A, reference compound] | – | – | – | TC50 in E. coli (E. coli (DH5α)): 2300 nM |
| CC[C@H]1OC(=O)[C@H](C)[C@@H](O[C@H]2C[C@@](C)(OC)[C@@H](O)[C@H](C)O2)[C@H](C)[C@@H](O[C@@H]2O[C@H](C)CC(N(C)C(=O)CN(C)CCO)[C@H]2O)[C@](C)(O)C[C@@H](C)CN(C)[C@H](C)[C@@H](O)[C@]1(C)O (stereo partly shown) [Compound 45] | – | – | – | TC50 in E. coli (E. coli (DH5α)): >50000 nM |
| CC[C@H]1OC(=O)[C@H](C)[C@@H](O)[C@H](C)[C@@H](O[C@@H]2O[C@H](C)C[C@@H](N(C)CCOC(=O)CC/C(C)=C/Cc3c(O)c4c(c(C)c3OC)COC4=O)[C@@H]2N(C)C)[C@](C)(O)C[C@@H](C)CN(C)[C@H](C)[C@@H](O)[C@]1(C)O [Compound 74] | 3.2 | 2.2 | 1.45 | – |
| CC[C@H]1OC(=O)[C@H](C)[C@@H](O[C@H]2C[C@@](C)(OC)[C@@H](O)[C@H](C)O2)[C@H](C)[C@@H](O[C@@H]2O[C@H](C)C[C@@H](OC(=O)CC/C(C)=C/Cc3c(O)c4c(c(C)c3OC)COC4=O)[C@@H]2N2CCOCC2)[C@](C)(O)C[C@@H](C)CN(C)[C@H](C)[C@@H](O)[C@]1(C)O [Compound 80] | 1.41 | 0.4 | 3.53 | – |
| COc1cc(C)c(/C(=C\C(C)=O)CC(N)C(=O)O)cc1OC (stereo not shown) [Compound 4] | – | – | – | uptake (speed) ([1]; uptake into immune cells, images during course of uptake): rapid |
| CC[C@H]1OC(=O)[C@H](C)C(=O)[C@H](C)[C@@H](O[C@@H]2O[C@H](C)C[C@H](N(C)C)[C@H]2OC(=O)CC/C(C)=C/Cc2c(O)c3c(c(C)c2OC)COC3=O)[C@](C)(O)C[C@@H](C)CN(C)[C@H](C)[C@@H](O)[C@]1(C)O [Compound 79] | 3.16 | 1.2 | 2.63 | – |
| CC[C@H]1OC(=O)[C@H](C)C(=O)[C@H](C)[C@@H](O[C@@H]2O[C@H](C)CC(N(C)C)[C@H]2O)[C@](C)(O)C[C@@H](C)CN(C)[C@H](C)[C@@H](O)[C@]1(C)O (stereo partly shown) [Compound 40] | – | – | – | TC50 in E. coli (E. coli (DH5α)): >50000 nM |
| COc1c(C)c2c(c(O)c1C/C=C(\C)CCC(=O)O)C(=O)OC2 [Mycophenolic acid, reference compound] | 2.5 | 0.54 | 4.63 | effect in the presence of guanosine (HeLa or JURKAT; 50 μM guanosine): completely removed; pIC50 (HeLa or JURKAT; normal culture conditions, HeLa or JURKAT): > 5.70 |
| COc1c(C)c2c(c(O)c1C/C=C(\C)CCC(=O)OC(COCCCCOCC(CN1CCOCC1)OC(=O)CC/C(C)=C/Cc1c(O)c3c(c(C)c1OC)COC3=O)CN1CCOCC1)C(=O)OC2 (stereo not shown) [Compound 81] | 1.78 | 1.12 | 1.6 | – |
| CCOC(=O)CC/C(C)=C/Cc1c(OC)c(C)c2c(c1OC(=O)CCC(=O)O[C@@H]1C(N(C)C)C[C@@H](C)O[C@H]1O[C@@H]1[C@@H](C)[C@H](O[C@H]3C[C@@](C)(OC)[C@@H](O)[C@H](C)O3)[C@@H](C)C(=O)O[C@H](CC)[C@@](C)(O)[C@H](O)[C@@H](C)N(C)C[C@H](C)C[C@@]1(C)O)C(=O)OC2 (stereo partly shown) [Compound 69] | 2.66 | 1.4 | 1.9 | – |
| CC[C@H]1OC(=O)[C@H](C)[C@@H](OC2C[C@@](C)(OC)[C@@H](O)[C@H](C)O2)[C@H](C)[C@@H](OC2O[C@H](C)C[C@H](N(C)C)[C@H]2O)[C@](C)(O)C[C@@H](C)/C(=N/OCc2cc(=O)oc3cc(OC)c(OC)cc23)[C@H](C)[C@@H](O)[C@]1(C)O (stereo partly shown) [Compound 3] | – | – | – | intracellular distribution ([1]; polymorphonuclear cells, fluorescent image (FIG. 3)): even distribution with some concentration near the nucleus |
